These are literature values, as cited in patent publication US20050118265A1, “Antifungal oral dosage forms and the methods for preparation” (priority 2003, published 2005).

The conditions of data set [1]: based on extrapolation of values obtained from methanolic solutions.
For data set [2] the following is noted: pH 8.1.

In general, pKa refers to the negative logarithm of the acid dissociation constant. Turning to `CCC(C)n1ncn(-c2ccc(N3CCN(c4ccc(OCC5COC(Cn6cncn6)(c6ccc(Cl)cc6Cl)O5)cc4)CC3)cc2)c1=O` (racemic) [Itraconazole, (±)-1-[(RS)-sec-butyl]-4-[p-[4-[p-[[(2R,4S)-2-(2,4-dichlorophenyl)-2-(1H-1,2,4-triazol-1-ylmethyl)-1,3-dioxolan-4-yl]methoxy]phenyl]-1-piperazinyl]phenyl]-Ä 2-1,2,4-triazolin-5-one], in data set [1], the pKa is 3.70. For the same molecule, the “log (n-octanol/water) partition coefficient” value in data set [2] is 5.66. Moreover, under “alcohol”, the solubility in alcohol entry is “very slightly soluble”. For the setting “dichloromethane”, the solubility in dichloromethane result was “freely soluble”. Besides, the solubility in ethanol result (ethanol alone) is “poorly soluble”. The solubility in water entry (water) is “insoluble”.
